Data published in US20040258779A1, “Dietary and pharmaceutical compositions for treatment of anemia, thrombocytopenia, and leukopenia” (priority 2003, published 2004).
Several values for one entry are separate records, joined by “and”; a condition that tells them apart may be missing. Equal values may be shown once.

How the values were obtained:
[1] = test system: human mononuclear cells; experiment: Cell longevity of mononuclear leukocytes, propidium iodide flow cytometry; assay type: cell-based; settings: for cell longivity (percentage of dead cells): time not given (twofold reduction after 72 hours), donors 1-3 and mean M; for cell longevity: after 24 hours treatment; for cell longevity, protective effect: after 48 hours of incubation; for percentage of dead cells: after 72 hours of the incubation
[2] = test system: target cells K-562; experiment: Natural killer cell cytotoxicity on 3H-uridine labeled target cells; assay type: cell-based, human; settings: for function of natural killer cells, Cytotoxicity (%): 3 hours incubation, K-562 targets, donors 1-7 and mean M
Procedure: Cells were separated after 3 hours of the incubation at 37° C. in CO2 incubator. Their cytotoxic action on the target cells K-562 labeled with ^3H-uridine was evaluated.

[3] = test system: human mononuclear cells; experiment: GM-CSF production by the human mononuclear cells; assay type: cell-based; settings: for GM-CSF production by the human mononuclear cells: donors 1-7 and mean M±; for GM-CSF synthesis, in words: versus random synthesis (control), statistically significant
Procedure: PL-3 was added in concentrations of 100 μg/ml, 10 μg/ml, 1 μg/ml, and feeding media was added to the control wells. Cytokine content was defined by IFA with commercial kit […] (Cytimmune, USA). The effect of PL-3 on the synthesis of GM-CSF was evaluated accordingly to the previous method.

[4] = test system: leukocytes of the healthy donors; experiment: Active oxygen forms by leukocytes, luminol dependent chemoluminiscence; assay type: cell-based, human
Procedure: This effect was evaluated by luminal dependent chemoluminiscence and cytofluorometry. In the first case leukocytes were separated by gelatin and connected with luminal, human serum and added to the vials with the different concentration of the substance.

[5] = test system: human mononuclear blood cells; experiment: TNF alpha production by human mononuclear blood cells; assay type: cell-based; settings: for TNF alpha synthesis by mononuclear cells, in words: versus control samples
Procedure: PL-3 was added in concentrations of 100 μg/ml, 10 μg/ml, 1 μg/ml, and feeding media was added to the control wells. Cytokine content was defined by IFA with commercial kit […] (Cytimmune, USA).

[6] = test system: monocytes; experiment: Active oxygen forms by monocytes, cytofluorometry; assay type: cell-based, human; design: formation of active oxygen forms by monocytes: unit not given here; settings: for formation of active oxygen forms by monocytes: single donors and mean M
Procedure: (§1) This effect was evaluated by luminal dependent chemoluminiscence and cytofluorometry. In the second case the leukocytes were added to dichlorofluoroscein […]). This substance is originally non fluorescence one. However, after the penetration into the cells it is turned into green fluorochrom in the presence of the hydrogen peroxide. The reaction was monitored in the flow cytometer FACSCalibur.

[7] = test system: neutrophils; experiment: Active oxygen forms by neutrophils, cytofluorometry; assay type: cell-based, human; settings: versus control data (p=0.08)
Procedure: as §1

[8] = Hypersensitivity of the delayed type
[9] = test system: interferon-γ

## CC(=O)N[C@H]1[C@H](O[C@H]2[C@H](O[C@H](C)C(=O)N[C@@H](C)C(=O)N[C@H](CCC(=O)O)C(N)=O)[C@@H](NC(C)=O)C(O)O[C@@H]2CO)O[C@H](CO)[C@@H](O)[C@@H]1O (some centres unmarked) [GMDP, reference compound]
[1]; 1 μg/ml
  cell longivity (percentage of dead cells): 16 and 17 and 18
[1]; 10 μg/ml
  cell longivity (percentage of dead cells): 17 and 23 and 21
[1]; 100 μg/ml
  cell longivity (percentage of dead cells): 15 and 18 and 24
[1]
  cell longevity: unchanged
  cell longevity, protective effect: weak protective effect
  percentage of dead cells: twofold reduction
[2]; 1 μg/ml
  function of natural killer cells, Cytotoxicity (%): 51% and 49% and 38% and 44% and 50% and 47%
[2]; 10 μg/ml
  function of natural killer cells, Cytotoxicity (%): 34% and 48% and 45% and 40% and 53% and 47%
[2]; 100 μg/ml
  function of natural killer cells, Cytotoxicity (%): 33% and 48% and 46% and 44% and 50%
[3]; 100 mkg/ml
  GM-CSF production by the human mononuclear cells: 983 and 584 and 609 and 944 and 581 and 735 and 773
[3]
  GM-CSF synthesis, in words: strong inductors
[4]
  ability of leukocytes to generate the active oxygen forms (chemoluminiscence), in words: did not change
[5]
  TNF alpha synthesis by mononuclear cells, in words: does not lead to the induction
[6]
  generation of active oxygen forms by monocytes, in words: do not generate the active oxygen forms
[6]; concentration 1.0 (unit not given)
  formation of active oxygen forms by monocytes: 27 and 16 (2×) and 23 and 54 and 15 and 12 and 18 and 14
[6]; concentration 10.0 (unit not given)
  formation of active oxygen forms by monocytes: 25 and 14 (2×) and 11 and 16 and 70 and 19 and 15 and 26
[6]; concentration 100.0 (unit not given)
  formation of active oxygen forms by monocytes: 14 and 15 and 12 and 16 (2×) and 34 (2×) and 102 and 19.5
[7]
  active oxygen forms, cytofluometric analysis, in words: does not posses this activity

## CC(=O)NC1C(OC2C(CO)OC(O)C(NC(C)=O)C2OC(C)C(=O)NC(C)C(=O)NC(CCC(=O)NC(CCCC(N)C(=O)O)C(=O)NC(C)C(=O)O)C(N)=O)OC(CO)C(O)C1O [PL-3, N-acetyl-glucosamine-N-acetyl-muramyl-L-alanine-D-isoglutamine-diaminopimenic acid-D-alanine]
[1]; 1 μg/ml
  cell longivity (percentage of dead cells): 16 and 18
[1]; 10 μg/ml
  cell longivity (percentage of dead cells): 16 and 21 and 17
[1]; 10 μg/ml, mean
  cell longivity (percentage of dead cells): 18
[1]; 100 μg/ml
  cell longivity (percentage of dead cells): 19 and 16
[1]; 100 μg/ml, mean
  cell longivity (percentage of dead cells): 18
[1]
  cell longevity: unchanged
  cell longevity, protective effect: weak protective effect
  percentage of dead cells: twofold reduction
[2]; 1 μg/ml, listed as GMTP
  function of natural killer cells, Cytotoxicity (%): 45% and 56% and 41% and 37% and 55% and 63% and 48%
[2]; 1 μg/ml, listed as GMTP, mean
  function of natural killer cells, Cytotoxicity (%): 49.2%
[2]; 10 μg/ml, listed as GMTP
  function of natural killer cells, Cytotoxicity (%): 55% and 38% and 44% and 43% and 53% and 65% and 57%
[2]; 10 μg/ml, listed as GMTP, mean
  function of natural killer cells, Cytotoxicity (%): 50.7%
[2]; 100 μg/ml
  cytotoxic activity of the natural killer cells, in words: increase the cytotoxic activity
[2]; 100 μg/ml, listed as GMTP
  function of natural killer cells, Cytotoxicity (%): 56% and 55% and 49% and 51% and 66% and 54%
[2]; 100 μg/ml, listed as GMTP, mean
  function of natural killer cells, Cytotoxicity (%): 54.2%
[8]
  hypersensitivity of the delayed type: absence of its effect
[3]; 10 mkg/ml and 100 mkg/ml, p=0.029 and 0.038
  GM-CSF synthesis relative to GMDP: almost two times more
[3]; 10 mkg/ml
  GM-CSF production by the human mononuclear cells: 1109 and 752 and 740 and 1115 and 920 and 1052
[3]; 10 mkg/ml, mean
  GM-CSF production by the human mononuclear cells: 975 ± 282.5
[3]
  GM-CSF synthesis, in words: strong inductors
[4]
  ability of leukocytes to generate the active oxygen forms (chemoluminiscence), in words: did not change
[5]
  TNF alpha production in comparison with GMDP: enhanced two fold
  TNF alpha synthesis by mononuclear cells, in words: significant increase
[9]
  interferon-γ: does not affect
[6]
  generation of active oxygen forms by monocytes, in words: do not generate the active oxygen forms
[6]; concentration 1.0 (unit not given), listed as GMTP
  formation of active oxygen forms by monocytes: 31 and 15 and 29 and 50 and 25 (2×) and 18 (2×) and 16
[6]; concentration 1.0 (unit not given), listed as GMTP, mean
  formation of active oxygen forms by monocytes: 25.2
[6]; concentration 10.0 (unit not given), listed as GMTP
  formation of active oxygen forms by monocytes: 29 and 14 (2×) and 18 (2×) and 13 and 32 and 17 and 15
[6]; concentration 10.0 (unit not given), listed as GMTP, mean
  formation of active oxygen forms by monocytes: 18.9
[6]; concentration 100.0 (unit not given), listed as GMTP
  formation of active oxygen forms by monocytes: 22 and 18 and 13 and 25 and 20 and 42 and 0.6 and 26 and 31
[6]; concentration 100.0 (unit not given), listed as GMTP, mean
  formation of active oxygen forms by monocytes: 23.8
[7]
  active oxygen forms, cytofluometric analysis, in words: stimulated the active oxygen forms
